The values below come from ChEMBL document CHEMBL1143950, “Antifungal and cytotoxic activities of some N-substituted aniline derivatives bearing a hetaryl fragment” (Bioorg Med Chem, 2008).

SMILES strings stand for the structures. In brackets after ≈: the same amount, converted by molar mass.

Common to all, as to assay type: functional
One assay deals with Trichophyton rubrum. The experiment in a line: Antifungal activity against Trichophyton rubrum C113 by microbroth dilution method.
The subject of a further assay is Aspergillus niger. The experiment in a line: Antifungal activity against Aspergillus niger ATCC 9029 by micro-broth dilution method. (In general: In broth dilution the organism is exposed to a series of concentrations in liquid medium.)
Another assay has as its system Candida tropicalis. The assay can be described thus: Antifungal activity against Candida tropicalis C131 by micro-broth dilution method.
Another assay has as its system Aspergillus fumigatus. The assay can be described thus: Antifungal activity against Aspergillus fumigatus ATCC 26934 by micro-broth dilution method.
Another assay has as its system Aspergillus flavus. The experiment in a line: Antifungal activity against Aspergillus flavus ATCC 9170 by micro-broth dilution method.
In the next assay the test system is Saccharomyces cerevisiae. The assay can be described thus: Antifungal activity against Saccharomyces cerevisiae ATCC 9763 by microbroth dilution method.
The subject of another assay is Cryptococcus neoformans. The assay can be described thus: Antifungal activity against Cryptococcus neoformans ATCC 32264 by microbroth dilution method.
A further assay has as its system Nannizzia gypsea. The assay can be described thus: Antifungal activity against Microsporum gypseum C115 by microbroth dilution method.
For assay [1], the system named is Trichophyton mentagrophytes. The experiment in a line: Antifungal activity against Trichophyton mentagrophytes ATCC 9972 by micro-broth dilution method.
For a further assay, the system named is Candida albicans. The experiment in a line: Antifungal activity against Candida albicans ATCC 10231 by micro-broth dilution method.

One may read the MIC as the lowest concentration that inhibits growth of the organism.

Consider `Cc1ccc(NCc2cccnc2)cc1`, for which the minimum inhibitory concentration (MIC) is 250 µg/mL (≈ 1260 µM) in the assay with Trichophyton rubrum; greater than 250 µg/mL in the assay on Aspergillus niger; greater than 250 µg/mL against Candida tropicalis; greater than 250 µg/mL against Aspergillus fumigatus; greater than 250 µg/mL in the assay on Aspergillus flavus; greater than 250 µg/mL against Saccharomyces cerevisiae. For the same compound, the minimum inhibitory concentration (MIC) against Cryptococcus neoformans is greater than 250 µg/mL; in the assay on Nannizzia gypsea it was 250 µg/mL (≈ 1260 µM); in [1], 250 µg/mL (≈ 1260 µM); against Candida albicans, greater than 250 µg/mL.

`c1ccc(NCc2ccccn2)cc1`: the MIC in the assay with Trichophyton rubrum is 25 µg/mL (≈ 136 µM); against Aspergillus niger, 250 µg/mL (≈ 1360 µM); against Candida tropicalis, 250 µg/mL (≈ 1360 µM); against Aspergillus fumigatus, 250 µg/mL (≈ 1360 µM); with Aspergillus flavus, greater than 250 µg/mL; in the assay on Saccharomyces cerevisiae, greater than 250 µg/mL. Also, the MIC with Cryptococcus neoformans was greater than 250 µg/mL; against Nannizzia gypsea, 125 µg/mL (≈ 678 µM); in [1], 25 µg/mL (≈ 136 µM); against Candida albicans, 250 µg/mL (≈ 1360 µM).

In the case of `Ic1ccc(NCc2ccccn2)cc1`, the minimal inhibitory concentration (MIC) is 25 µg/mL (≈ 80.6 µM) in the assay on Trichophyton rubrum; 100 µg/mL (≈ 322 µM) in the assay on Aspergillus niger; greater than 250 µg/mL against Candida tropicalis; 200 µg/mL (≈ 645 µM) against Aspergillus fumigatus; 100 µg/mL (≈ 322 µM) in the assay on Aspergillus flavus; 200 µg/mL (≈ 645 µM) against Saccharomyces cerevisiae. Also, the minimum inhibitory concentration (MIC) against Cryptococcus neoformans is 100 µg/mL (≈ 322 µM); in the assay with Nannizzia gypsea, 25 µg/mL (≈ 80.6 µM); in assay [1], 25 µg/mL (≈ 80.6 µM); against Candida albicans, greater than 250 µg/mL.

On to `Cc1ccc(NCc2cccs2)cc1`, for which the MIC with Trichophyton rubrum is 25 µg/mL (≈ 123 µM); in the assay on Aspergillus niger, greater than 250 µg/mL; in the assay with Candida tropicalis, greater than 250 µg/mL; in the assay with Aspergillus fumigatus, greater than 250 µg/mL; against Aspergillus flavus it was greater than 250 µg/mL; with Saccharomyces cerevisiae it was greater than 250 µg/mL. For the same compound, the minimum inhibitory concentration (MIC) is greater than 250 µg/mL against Cryptococcus neoformans, 12.5 µg/mL (≈ 61.5 µM) against Nannizzia gypsea, 50 µg/mL (≈ 246 µM) in [1] and greater than 250 µg/mL in the assay on Candida albicans.

On to `Cc1ccc(NCc2ccsc2)cc1`, for which the MIC against Trichophyton rubrum was 125 µg/mL (≈ 615 µM); against Aspergillus niger it was 250 µg/mL (≈ 1230 µM); in the assay on Candida tropicalis, greater than 250 µg/mL; against Aspergillus fumigatus, 250 µg/mL (≈ 1230 µM); in the assay with Aspergillus flavus, 250 µg/mL (≈ 1230 µM); with Saccharomyces cerevisiae it was greater than 250 µg/mL. The MIC in the assay with Cryptococcus neoformans is 250 µg/mL (≈ 1230 µM); against Nannizzia gypsea it was 250 µg/mL (≈ 1230 µM); in assay [1], 125 µg/mL (≈ 615 µM); in the assay with Candida albicans, greater than 250 µg/mL.

With `Cn1cccc1CNc1ccccc1`, the minimum inhibitory concentration (MIC) is 250 µg/mL (≈ 1340 µM) with Trichophyton rubrum; greater than 250 µg/mL with Aspergillus niger; greater than 250 µg/mL against Candida tropicalis; greater than 250 µg/mL with Aspergillus fumigatus; greater than 250 µg/mL against Aspergillus flavus; greater than 250 µg/mL against Saccharomyces cerevisiae. Also, the MIC was greater than 250 µg/mL with Cryptococcus neoformans, greater than 250 µg/mL in the assay on Nannizzia gypsea, 250 µg/mL (≈ 1340 µM) in assay [1] and greater than 250 µg/mL against Candida albicans.

In the case of `c1ccc(NCc2ccncc2)cc1`, the minimal inhibitory concentration (MIC) with Trichophyton rubrum was 125 µg/mL (≈ 678 µM); against Aspergillus niger, 250 µg/mL (≈ 1360 µM); with Candida tropicalis, 250 µg/mL (≈ 1360 µM); in the assay on Aspergillus fumigatus, 250 µg/mL (≈ 1360 µM); in the assay with Aspergillus flavus, 250 µg/mL (≈ 1360 µM); against Saccharomyces cerevisiae it was greater than 250 µg/mL. Further, the minimum inhibitory concentration (MIC) was greater than 250 µg/mL against Cryptococcus neoformans, 125 µg/mL (≈ 678 µM) against Nannizzia gypsea, 125 µg/mL (≈ 678 µM) in assay [1] and greater than 250 µg/mL in the assay on Candida albicans.

As for `Cc1ccc(NCc2ccoc2)cc1`, the MIC in the assay on Trichophyton rubrum, against Aspergillus niger, against Candida tropicalis, in the assay with Aspergillus fumigatus, against Aspergillus flavus and with Saccharomyces cerevisiae was 250 µg/mL (≈ 1340 µM) each time. The MIC in the assay with Cryptococcus neoformans came to 125 µg/mL (≈ 668 µM); against Nannizzia gypsea, 125 µg/mL (≈ 668 µM); in assay [1], 250 µg/mL (≈ 1340 µM); in the assay on Candida albicans, 250 µg/mL (≈ 1340 µM).

As for `COc1ccc(NCc2ccco2)cc1`, the minimum inhibitory concentration (MIC) in the assay with Trichophyton rubrum is 100 µg/mL (≈ 492 µM); in the assay with Aspergillus niger, 250 µg/mL (≈ 1230 µM); against Candida tropicalis, greater than 250 µg/mL; with Aspergillus fumigatus, 250 µg/mL (≈ 1230 µM); with Aspergillus flavus it was 250 µg/mL (≈ 1230 µM); in the assay with Saccharomyces cerevisiae it was greater than 250 µg/mL. The MIC with Cryptococcus neoformans was greater than 250 µg/mL; with Nannizzia gypsea, 100 µg/mL (≈ 492 µM); in [1] it was 50 µg/mL (≈ 246 µM); with Candida albicans it was greater than 250 µg/mL.

As for `Cc1ccc(NCc2cccn2C)cc1`, the minimum inhibitory concentration (MIC) in the assay on Trichophyton rubrum, in the assay with Aspergillus niger, against Candida tropicalis, in the assay with Aspergillus fumigatus, against Aspergillus flavus and against Saccharomyces cerevisiae was greater than 250 µg/mL each time. The MIC (with Cryptococcus neoformans; against Nannizzia gypsea; in [1]; in the assay with Candida albicans) was greater than 250 µg/mL throughout.

As to `C[C@@H]1[C@H](O)[C@@H](C)/C=C/C=C/C=C/C=C/C=C/C=C/C=C/[C@H](O[C@@H]2O[C@H](C)[C@@H](O)[C@H](N)[C@@H]2O)C[C@@H]2O[C@](O)(C[C@@H](O)C[C@@H](O)[C@H](O)CC[C@@H](O)C[C@@H](O)CC(=O)O[C@H]1C)C[C@H](O)[C@H]2C(=O)O` [AMPHOTERICIN B], the MIC with Aspergillus niger came out at 0.5 µg/mL (≈ 0.541 µM); with Candida tropicalis it was 0.5 µg/mL (≈ 0.541 µM); in the assay with Aspergillus fumigatus, 0.5 µg/mL (≈ 0.541 µM); with Aspergillus flavus, 0.5 µg/mL (≈ 0.541 µM); in the assay on Saccharomyces cerevisiae, 0.5 µg/mL (≈ 0.541 µM); against Cryptococcus neoformans it was 0.25 µg/mL (≈ 0.271 µM). The compound further registered a minimum inhibitory concentration (MIC) in the assay on Candida albicans of 1 µg/mL (≈ 1.08 µM).

For `CN(C/C=C/C#CC(C)(C)C)Cc1cccc2ccccc12` [TERBINAFINE], the results for the minimum inhibitory concentration (MIC) (against Trichophyton rubrum; with Nannizzia gypsea; in [1]) were 0.01 µg/mL (≈ 0.0343 µM), 0.04 µg/mL (≈ 0.137 µM) and 0.04 µg/mL (≈ 0.137 µM), respectively.
